# In US6685851B2, “Derivatives of cycloaliphatic diamines as cosolvents for aqueous hydrophobic amines” (PRC-DeSoto International, Inc., priority 1999, dated 2004):
# Tests used:
# Assay type in all cases: physicochemical
# [1] = Water added dropwise to 1:1 hydrophobic amine/cosolvent amine blend until turbidity (visible light scattering)
# Description: To illustrate the efficiency of the present invention to solubilize various hydrophobic amines, one part by weight of various commercially available hydrophobic amines is blended with one part by weight of a cosolvent amine. Water is then added dropwise with vigorous stirring to the blend of one part hydrophobic amine and one part cosolvent amine. The parts of water added is monitored by the appearance of turbidity as measured by visible light scattering. […] Cosolvents amines A-D are those of the present invention. In order to assess the relative efficiency of the cosolvent amines of the present invention, A-D; conventional cosolvent amines, E-I and the omission of a cosolvent, J are also evaluated.
# [2] = target: T1, bacteriorhodopsin (Halobacterium salinarum, UniProt P02945); assay: Dispersion of bacteriorhodopsin in aqueous cosolvent by small angle x-ray scattering (Example 3); conditions: 0.1 gram bacteriorhodopsin, 0.1 grams cosolvent, 1.1 grams water
# T1 construct: A lyophilized powder of bacteriorhodopsin is obtained according to D. Oesterhett Mtds; Enzy 31, 1974, 667; made in house; host or cells: Isolated from the natural producer (Halobacterium) by the cited literature method
# T1 sequence (P02945 14-262): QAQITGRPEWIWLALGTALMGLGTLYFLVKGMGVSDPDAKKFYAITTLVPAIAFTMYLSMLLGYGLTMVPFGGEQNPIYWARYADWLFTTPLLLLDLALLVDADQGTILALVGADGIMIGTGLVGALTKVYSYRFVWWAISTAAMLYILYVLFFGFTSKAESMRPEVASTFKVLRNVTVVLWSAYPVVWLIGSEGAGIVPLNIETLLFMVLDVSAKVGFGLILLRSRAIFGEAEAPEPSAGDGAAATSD
# Text: A lyophilized powder of bacteriorhodopsin is obtained according to D. Oesterhett Mtds. Enzy 31, 1974, 667. 0.1 gram of bacteriorhodopsin is mixed with 0.1 grams of 1,2 diaminocycylohexane cosolvent and 1.1 grams of water added.
# [3] = Aqueous solution of polyamidoamine with cosolvent amine, appearance and stability (Example 1); conditions: 10 parts polyamidoamine, 10 parts cosolvent, 150 parts room temperature water
# Description: 10 parts of a polyamidoamine (Air Products 506 amidoamine) is added to a reactor equipped with a mechanical agitator.
# [4] = 1 part Air Products 506 Amidoamine + 1 part cosolvent amine by weight
# [5] = 1 part Air Products 2460 Polyamide + 1 part cosolvent amine by weight
# [6] = 1 part Cardolite NC-540 Phenalkamine + 1 part cosolvent amine by weight
SMILES,"Parts of water added to 2 parts of amine blend yielding a clear solution [1, 4]","Parts of water added to 2 parts of amine blend yielding a clear solution [1, 5]","Parts of water added to 2 parts of amine blend yielding a clear solution [1, 6]",Appearance of aqueous solution [3],Stability of the solution [3],Dispersion of bacteriorhodopsin in the aqueous cosolvent [2]
"NC1CCCC1N (stereo not drawn) [Cosolvent D, 1,2 Diaminocyclopentane]",<5 parts,<5 parts,<3.5 parts,,,
"NCc1cccc(CN)c1 [Cosolvent I, m-Xylylenediamine, reference compound]",<5 parts,<3.75 parts,<.5 parts,,,
"CC1(C)CC(N)CC(C)(CN)C1 (stereo not drawn) [Cosolvent A, Isophorone diamine]",>28 parts,>22 parts,>30 parts,,,
"NC1CCCCC1N (stereo not drawn) [Cosolvent C, 1,2-Diamino cyclohexane]",,,,,,uniformly dispersed
"NCC1CCCC(CN)C1 (stereo not drawn) [Cosolvent B, 1,3-Bis (aminomethyl) cyclohexane]",>19 parts,>10 parts,>18 parts,"uniform, clear solution is formed",stable for greater than three months,

# Further lines, with some results ahead:
"Parts of water added to 2 parts of amine blend yielding a clear solution [1, 4]","Parts of water added to 2 parts of amine blend yielding a clear solution [1, 5]","Parts of water added to 2 parts of amine blend yielding a clear solution [1, 6]",Appearance of aqueous solution [3],Stability of the solution [3],SMILES,Dispersion of bacteriorhodopsin in the aqueous cosolvent [2]
<4 parts,<2 parts,<.5 parts,,,"NCCCN1CCN(CCCN)CC1 [Cosolvent F, 1,4-Bis (3-aminopropyl) piperazine, reference compound]",
<6 parts,3.5 parts,<3.9 parts,,,CC(CN)CCCN (stereo not drawn) [Cosolvent E],
<2 parts,<2 parts,<.5 parts,,,NCCOCCOCCN [Cosolvent G],
<7 parts,<3.6 parts,<3 parts,,,"CCCCC(N)CN (stereo not drawn) [Cosolvent H, 1,2-Hexanediamine, reference compound]",
